≈ marks a conversion by molar mass, not a printed value.
Organism: Oryctolagus cuniculus
Assay: not given
Conditions: not given

| Compound | Delta IOP [mmHg] |
| --- | --- |
| NS(=O)(=O)c1ccc(N/C(S)=N/CCC(=O)NC(Cc2c[nH]cn2)C(=O)O)cc1 (stereo unspecified) | 4 |
| NS(=O)(=O)c1ccc(N/C(S)=N\CC(=O)O)cc1 | 0.5 |
| NS(=O)(=O)c1ccc(N/C(S)=N/C(C(=O)O)C(O)c2ccccc2)cc1 (stereo unspecified) | 9.6 |
| CC(/N=C(/S)Nc1ccc(S(N)(=O)=O)cc1)C(=O)NC(Cc1ccccc1)C(=O)O (stereo unspecified) | 3 |
| NS(=O)(=O)c1ccc(NC(=S)NC(CC(=O)O)C(=O)O)cc1 (stereo unspecified) | 2 |
| N=C(N)NCCCC(/N=C(\S)Nc1ccc(S(N)(=O)=O)cc1)C(=O)O (stereo unspecified) | 4 |
| NS(=O)(=O)c1ccc(N/C(S)=N/C(Cc2c[nH]cn2)C(=O)O)cc1 (stereo unspecified) | 4 |
| NS(=O)(=O)c1ccc(N/C(S)=N/C(CS)C(=O)O)cc1 (stereo unspecified) | 0 |
| CCC(C)C(/N=C(\S)Nc1ccc(S(N)(=O)=O)cc1)C(=O)O (stereo unspecified) | 0.3 |
| NS(=O)(=O)c1ccc(NC(=S)N2CCCC2C(=O)O)cc1 (stereo unspecified) | 1 |

Organism: Oryctolagus cuniculus
Assay: not given
Conditions: not given
Remark: another data set of the same source

| Compound | kin [h⁻¹] |
| --- | --- |
| NS(=O)(=O)c1ccc(N/C(S)=N/CCC(=O)NC(Cc2c[nH]cn2)C(=O)O)cc1 (stereo unspecified) | 5000 |
| NS(=O)(=O)c1ccc(N/C(S)=N/C(C(=O)O)C(O)c2ccccc2)cc1 (stereo unspecified) | 12300 |
| NS(=O)(=O)c1ccc(NC(=S)NC(CC(=O)O)C(=O)O)cc1 (stereo unspecified) | 800 |
| NS(=O)(=O)c1ccc(N/C(S)=N/C(CS)C(=O)O)cc1 (stereo unspecified) | 700 |

Biological target: T1, Carbonic anhydrase 4 (Bos taurus, UniProt Q95323)
T1 sequence (Q95323 whole entry): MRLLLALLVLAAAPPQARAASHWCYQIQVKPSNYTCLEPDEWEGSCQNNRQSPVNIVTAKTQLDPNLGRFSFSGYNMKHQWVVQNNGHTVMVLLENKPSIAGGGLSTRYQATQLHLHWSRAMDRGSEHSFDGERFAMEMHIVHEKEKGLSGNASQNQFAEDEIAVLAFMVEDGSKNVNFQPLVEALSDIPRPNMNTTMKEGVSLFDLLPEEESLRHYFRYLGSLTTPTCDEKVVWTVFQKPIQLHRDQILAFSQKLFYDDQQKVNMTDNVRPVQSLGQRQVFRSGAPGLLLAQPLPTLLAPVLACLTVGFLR
Assay: not given
Conditions: not given

| Compound | Ki [nM] |
| --- | --- |
| NS(=O)(=O)c1ccc(N/C(S)=N\CC(=O)O)cc1 | 39 |
| NS(=O)(=O)c1ccc(N/C(S)=N/C(C(=O)O)C(O)c2ccccc2)cc1 (stereo unspecified) | 9 |
| CC(/N=C(/S)Nc1ccc(S(N)(=O)=O)cc1)C(=O)NC(Cc1ccccc1)C(=O)O (stereo unspecified) | 13 |
| NS(=O)(=O)c1ccc(NC(=S)NC(CC(=O)O)C(=O)O)cc1 (stereo unspecified) | 17 |
| N=C(N)NCCCC(/N=C(\S)Nc1ccc(S(N)(=O)=O)cc1)C(=O)O (stereo unspecified) | 61 |
| NS(=O)(=O)c1ccc(NC(=S)N2CCCC2C(=O)O)cc1 (stereo unspecified) | 68 |

Results, then the compound that gave them:

| Ki [nM] | Compound |
| --- | --- |
| 10 | NS(=O)(=O)c1ccc(N/C(S)=N/CCC(=O)NC(Cc2c[nH]cn2)C(=O)O)cc1 (stereo unspecified) |
| 15 | NS(=O)(=O)c1ccc(N/C(S)=N/C(Cc2c[nH]cn2)C(=O)O)cc1 (stereo unspecified) |
| 10 | NS(=O)(=O)c1ccc(N/C(S)=N/C(CS)C(=O)O)cc1 (stereo unspecified) |
| 10 | CCC(C)C(/N=C(\S)Nc1ccc(S(N)(=O)=O)cc1)C(=O)O (stereo unspecified) |

System: not given
Assay: not given
Conditions: octanol/water

| Compound | logD |
| --- | --- |
| NS(=O)(=O)c1ccc(N/C(S)=N/C(C(=O)O)C(O)c2ccccc2)cc1 (stereo unspecified) | 2.314 |
| NS(=O)(=O)c1ccc(NC(=S)NC(CC(=O)O)C(=O)O)cc1 (stereo unspecified) | 0.05 |

Second part, the compound after the results:

| logD | Compound |
| --- | --- |
| 0.725 | NS(=O)(=O)c1ccc(N/C(S)=N/CCC(=O)NC(Cc2c[nH]cn2)C(=O)O)cc1 (stereo unspecified) |
| 0.09 | NS(=O)(=O)c1ccc(N/C(S)=N/C(CS)C(=O)O)cc1 (stereo unspecified) |

Organism: Oryctolagus cuniculus
Assay: not given
Conditions: not given
Remark: another data set of the same source

| Compound | Delta IOP [mmHg] |
| --- | --- |
| NS(=O)(=O)c1ccc(N/C(S)=N/CCC(=O)NC(Cc2c[nH]cn2)C(=O)O)cc1 (stereo unspecified) | 1 |
| NS(=O)(=O)c1ccc(N/C(S)=N\CC(=O)O)cc1 | 3 |
| NS(=O)(=O)c1ccc(N/C(S)=N/C(C(=O)O)C(O)c2ccccc2)cc1 (stereo unspecified) | 9 |
| CC(/N=C(/S)Nc1ccc(S(N)(=O)=O)cc1)C(=O)NC(Cc1ccccc1)C(=O)O (stereo unspecified) | 0.2 |
| NS(=O)(=O)c1ccc(NC(=S)NC(CC(=O)O)C(=O)O)cc1 (stereo unspecified) | 2 |
| N=C(N)NCCCC(/N=C(\S)Nc1ccc(S(N)(=O)=O)cc1)C(=O)O (stereo unspecified) | 1 |
| NS(=O)(=O)c1ccc(N/C(S)=N/C(Cc2c[nH]cn2)C(=O)O)cc1 (stereo unspecified) | 4 |
| NS(=O)(=O)c1ccc(N/C(S)=N/C(CS)C(=O)O)cc1 (stereo unspecified) | 0 |
| CCC(C)C(/N=C(\S)Nc1ccc(S(N)(=O)=O)cc1)C(=O)O (stereo unspecified) | 2 |
| NS(=O)(=O)c1ccc(NC(=S)N2CCCC2C(=O)O)cc1 (stereo unspecified) | 0 |

Organism: Oryctolagus cuniculus
Assay: not given
Conditions: not given
Remark: another data set of the same source

| Compound | kin [h⁻¹] |
| --- | --- |
| NS(=O)(=O)c1ccc(N/C(S)=N/CCC(=O)NC(Cc2c[nH]cn2)C(=O)O)cc1 (stereo unspecified) | 2200 |
| NS(=O)(=O)c1ccc(N/C(S)=N/C(C(=O)O)C(O)c2ccccc2)cc1 (stereo unspecified) | 4900 |
| NS(=O)(=O)c1ccc(NC(=S)NC(CC(=O)O)C(=O)O)cc1 (stereo unspecified) | 100 |
| NS(=O)(=O)c1ccc(N/C(S)=N/C(CS)C(=O)O)cc1 (stereo unspecified) | 300 |

Biological target: Carbonic anhydrase 2 (Homo sapiens, UniProt P00918)
Assay: not given
Conditions: not given

| Compound | Ki [nM] |
| --- | --- |
| NS(=O)(=O)c1ccc(N/C(S)=N\CC(=O)O)cc1 | 20 |
| NS(=O)(=O)c1ccc(N/C(S)=N/C(C(=O)O)C(O)c2ccccc2)cc1 (stereo unspecified) | 2 |
| CC(/N=C(/S)Nc1ccc(S(N)(=O)=O)cc1)C(=O)NC(Cc1ccccc1)C(=O)O (stereo unspecified) | 4 |
| NS(=O)(=O)c1ccc(NC(=S)NC(CC(=O)O)C(=O)O)cc1 (stereo unspecified) | 8 |
| N=C(N)NCCCC(/N=C(\S)Nc1ccc(S(N)(=O)=O)cc1)C(=O)O (stereo unspecified) | 15 |
| NS(=O)(=O)c1ccc(NC(=S)N2CCCC2C(=O)O)cc1 (stereo unspecified) | 25 |

Second part, the compound after the results:

| Ki [nM] | Compound |
| --- | --- |
| 3 | NS(=O)(=O)c1ccc(N/C(S)=N/CCC(=O)NC(Cc2c[nH]cn2)C(=O)O)cc1 (stereo unspecified) |
| 5 | NS(=O)(=O)c1ccc(N/C(S)=N/C(Cc2c[nH]cn2)C(=O)O)cc1 (stereo unspecified) |
| 5 | NS(=O)(=O)c1ccc(N/C(S)=N/C(CS)C(=O)O)cc1 (stereo unspecified) |
| 4 | CCC(C)C(/N=C(\S)Nc1ccc(S(N)(=O)=O)cc1)C(=O)O (stereo unspecified) |

System: not listed separately
Assay: physchem
Conditions: buffer, pH 7.4
Description: (§1) Solubility (in uM) in pH 7.40 at 25 degree C

| Compound | solubility [mM] |
| --- | --- |
| NS(=O)(=O)c1ccc(N/C(S)=N/CCC(=O)NC(Cc2c[nH]cn2)C(=O)O)cc1 (stereo unspecified) | 52 (≈ 22.9 mg/mL) |
| NS(=O)(=O)c1ccc(N/C(S)=N/C(C(=O)O)C(O)c2ccccc2)cc1 (stereo unspecified) | 48 (≈ 19 mg/mL) |

Biological target: Carbonic anhydrase 1 (Homo sapiens, UniProt P00915)
Assay: not given
Conditions: not given

Sequence of Carbonic anhydrase 1 (P00915 whole entry): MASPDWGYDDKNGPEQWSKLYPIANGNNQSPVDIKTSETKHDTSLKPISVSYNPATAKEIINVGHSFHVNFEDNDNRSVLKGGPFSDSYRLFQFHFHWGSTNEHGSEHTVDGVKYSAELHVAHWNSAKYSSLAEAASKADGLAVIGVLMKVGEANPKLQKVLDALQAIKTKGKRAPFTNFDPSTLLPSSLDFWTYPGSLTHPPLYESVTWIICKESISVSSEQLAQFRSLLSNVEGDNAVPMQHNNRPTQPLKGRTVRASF

| Compound | Ki [nM] |
| --- | --- |
| NS(=O)(=O)c1ccc(N/C(S)=N\CC(=O)O)cc1 | 62 |
| NS(=O)(=O)c1ccc(N/C(S)=N/C(C(=O)O)C(O)c2ccccc2)cc1 (stereo unspecified) | 24 |
| CC(/N=C(/S)Nc1ccc(S(N)(=O)=O)cc1)C(=O)NC(Cc1ccccc1)C(=O)O (stereo unspecified) | 23 |
| NS(=O)(=O)c1ccc(NC(=S)NC(CC(=O)O)C(=O)O)cc1 (stereo unspecified) | 35 |
| N=C(N)NCCCC(/N=C(\S)Nc1ccc(S(N)(=O)=O)cc1)C(=O)O (stereo unspecified) | 115 |
| NS(=O)(=O)c1ccc(NC(=S)N2CCCC2C(=O)O)cc1 (stereo unspecified) | 110 |

Results, then the compound that gave them:

| Ki [nM] | Compound |
| --- | --- |
| 23 | NS(=O)(=O)c1ccc(N/C(S)=N/CCC(=O)NC(Cc2c[nH]cn2)C(=O)O)cc1 (stereo unspecified) |
| 32 | NS(=O)(=O)c1ccc(N/C(S)=N/C(Cc2c[nH]cn2)C(=O)O)cc1 (stereo unspecified) |
| 25 | NS(=O)(=O)c1ccc(N/C(S)=N/C(CS)C(=O)O)cc1 (stereo unspecified) |
| 22 | CCC(C)C(/N=C(\S)Nc1ccc(S(N)(=O)=O)cc1)C(=O)O (stereo unspecified) |

System: Oryctolagus cuniculus
Assay: Tested in vivo for lowering IOP (Intraocular Pressure)in Normotensive Rabbits at pH 7.0 after treatment with 50 uL, activity at 60 minutes
Type: functional
Conditions: not given

| Compound | Delta IOP [mmHg] |
| --- | --- |
| NS(=O)(=O)c1ccc(N/C(S)=N/C(Cc2c[nH]cn2)C(=O)O)cc1 (stereo unspecified) | 4.6 |

Organism: Oryctolagus cuniculus
Assay: not given
Conditions: not given
Remark: another data set of the same source

| Compound | Delta IOP [mmHg] |
| --- | --- |
| NS(=O)(=O)c1ccc(N/C(S)=N/CCC(=O)NC(Cc2c[nH]cn2)C(=O)O)cc1 (stereo unspecified) | 1.2 |
| NS(=O)(=O)c1ccc(N/C(S)=N\CC(=O)O)cc1 | 5.9 |
| NS(=O)(=O)c1ccc(N/C(S)=N/C(C(=O)O)C(O)c2ccccc2)cc1 (stereo unspecified) | 10 |
| CC(/N=C(/S)Nc1ccc(S(N)(=O)=O)cc1)C(=O)NC(Cc1ccccc1)C(=O)O (stereo unspecified) | 0.2 |
| NS(=O)(=O)c1ccc(NC(=S)NC(CC(=O)O)C(=O)O)cc1 (stereo unspecified) | 2.6 |
| N=C(N)NCCCC(/N=C(\S)Nc1ccc(S(N)(=O)=O)cc1)C(=O)O (stereo unspecified) | 1.2 |
| NS(=O)(=O)c1ccc(N/C(S)=N/C(CS)C(=O)O)cc1 (stereo unspecified) | 0 |
| CCC(C)C(/N=C(\S)Nc1ccc(S(N)(=O)=O)cc1)C(=O)O (stereo unspecified) | 4 |
| NS(=O)(=O)c1ccc(NC(=S)N2CCCC2C(=O)O)cc1 (stereo unspecified) | 1 |

System: not listed separately
Assay: physchem
Conditions: buffer, pH 7.4
Remark: another data set of the same source
Description: as §1

| Compound | solubility [mM] |
| --- | --- |
| NS(=O)(=O)c1ccc(NC(=S)NC(CC(=O)O)C(=O)O)cc1 (stereo unspecified) | 60 (≈ 20.8 mg/mL) |
| NS(=O)(=O)c1ccc(N/C(S)=N/C(CS)C(=O)O)cc1 (stereo unspecified) | 65 (≈ 21.8 mg/mL) |

Reference: ChEMBL document CHEMBL1133556, “Carbonic anhydrase inhibitors: water-soluble 4-sulfamoylphenylthioureas as topical intraocular pressure-lowering agents with long-lasting effects” (J Med Chem, 2000)
